Results reported in patent publication US20260053811A1, “METHODS OF TREATING HYPERTENSION IN OBESE SUBJECTS” (Mineralys Therapeutics, Inc., priority 2022, published 2026).

System: hypertensive subjects
Test: Adverse events (TEAEs, SAEs, AESI, study drug discontinuation, dose modification);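 further: counts of spontaneously reported adverse events in the Safety Analysis Set, subjects grouped by treatment actually received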
Assay type: in vivo, human
Settings: Part 1
Source text: In analyses performed on the Safety Analysis Set, subjects will be analyzed according to their actual treatment received.

CC(=O)N[C@H]1CC[C@H](NC(=O)CN2CCN(c3nncc(-c4ccc(C)cc4)n3)CC2)CC1 [Compound A HBr]
On-treatment TEAE: Infections and infestations, Moderate (12.5 mg QD (N = 23)): 0 n (%) | On-treatment TEAE: Investigations (12.5 mg QD (N = 23)): 3 (13.0) n (%) | On-treatment TEAE: Investigations, Mild (12.5 mg QD (N = 23)): 3 (13.0) n (%) | On-treatment TEAE: Investigations, Moderate (12.5 mg QD (N = 23)): 0 n (%) | On-treatment TEAE: Metabolism and nutrition disorders (12.5 mg QD (N = 23)): 6 (26.1) n (%) | On-treatment TEAE: Metabolism and nutrition disorders, Mild (12.5 mg QD (N = 23)): 4 (17.4) n (%) | On-treatment TEAE: Metabolism and nutrition disorders, Moderate (12.5 mg QD (N = 23)): 1 (4.3) n (%) | On-treatment TEAE: Nervous system disorders (12.5 mg QD (N = 23)): 2 (8.7) n (%) | On-treatment TEAE: Nervous system disorders, Mild (12.5 mg QD (N = 23)): 2 (8.7) n (%) | On-treatment TEAE: Orthostatic hypotension (12.5 mg QD (N = 23)): 2 (8.7) n (%) | On-treatment TEAE: Orthostatic hypotension, Mild (12.5 mg QD (N = 23)): 2 (8.7) n (%) | On-treatment TEAE: Psychiatric disorders (12.5 mg QD (N = 23)): 0 n (%) | On-treatment TEAE: Psychiatric disorders, Moderate (12.5 mg QD (N = 23)): 0 n (%) | On-treatment TEAE: Urinary tract infection (12.5 mg QD (N = 23)): 1 (4.3) n (%) | On-treatment TEAE: Urinary tract infection, Mild (12.5 mg QD (N = 23)): 1 (4.3) n (%) | On-treatment TEAE: Vascular disorders (12.5 mg QD (N = 23)): 3 (13.0) n (%) | On-treatment TEAE: Vascular disorders, Mild (12.5 mg QD (N = 23)): 2 (8.7) n (%) | On-treatment TEAE: Vascular disorders, Moderate (12.5 mg QD (N = 23)): 1 (4.3) n (%) | On-treatment TEAE: any, Mild (12.5 mg QD (N = 23)): 12 (52.2) n (%) | On-treatment TEAE: any, Moderate (12.5 mg QD (N = 23)): 3 (13.0) n (%) | On-treatment TEAE: any, Severe (12.5 mg QD (N = 23)): 1 (4.3) n (%) | Subjects with any On-treatment TEAEs leading to withdrawal from study drug (12.5 mg QD (N = 23)): 4 (17.4) n (%) | TEAE leading to permanent discontinuation from study drug: Activated partial thromboplastin time prolonged (12.5 mg QD (N = 23)): 0 n (%) | TEAE leading to permanent discontinuation from study drug: Cardiac disorders (12.5 mg QD (N = 23)): 1 (4.3) n (%) | TEAE leading to permanent discontinuation from study drug: Coronary artery disease (12.5 mg QD (N = 23)): 1 (4.3) n (%) | TEAE leading to permanent discontinuation from study drug: Dizziness (12.5 mg QD (N = 23)): 1 (4.3) n (%) | TEAE leading to permanent discontinuation from study drug: Hyperkalaemia (12.5 mg QD (N = 23)): 2 (8.7) n (%) | TEAE leading to permanent discontinuation from study drug: Hypertension (12.5 mg QD (N = 23)): 0 n (%) | TEAE leading to permanent discontinuation from study drug: Hypotension (12.5 mg QD (N = 23)): 0 n (%) | TEAE leading to permanent discontinuation from study drug: Investigations (12.5 mg QD (N = 23)): 0 n (%) | TEAE leading to permanent discontinuation from study drug: Metabolism and nutrition disorders (12.5 mg QD (N = 23)): 2 (8.7) n (%) | TEAE leading to permanent discontinuation from study drug: Nervous system disorders (12.5 mg QD (N = 23)): 1 (4.3) n (%) | TEAE leading to permanent discontinuation from study drug: Orthostatic hypotension (12.5 mg QD (N = 23)): 0 n (%) | TEAE leading to permanent discontinuation from study drug: Vascular disorders (12.5 mg QD (N = 23)): 0 n (%) | On-treatment TEAE: Blood and lymphatic system disorders (25 mg BID (N = 30)): 2 (6.7) n (%) | On-treatment TEAE: Blood and lymphatic system disorders, Mild (25 mg BID (N = 30)): 2 (6.7) n (%) | On-treatment TEAE: Blood creatinine increased (25 mg BID (N = 30)): 0 n (%) | On-treatment TEAE: Blood creatinine increased, Mild (25 mg BID (N = 30)): 0 n (%) | On-treatment TEAE: Cardiac disorders (25 mg BID (N = 30)): 0 n (%) | On-treatment TEAE: Cortisol decreased (25 mg BID (N = 30)): 1 (3.3) n (%) | On-treatment TEAE: Cortisol decreased, Mild (25 mg BID (N = 30)): 1 (3.3) n (%) | On-treatment TEAE: Dizziness (25 mg BID (N = 30)): 0 n (%) | On-treatment TEAE: Gastrointestinal disorders (25 mg BID (N = 30)): 1 (3.3) n (%) | On-treatment TEAE: Gastrointestinal disorders, Mild (25 mg BID (N = 30)): 1 (3.3) n (%) | On-treatment TEAE: General disorders and administration site conditions (25 mg BID (N = 30)): 0 n (%) | On-treatment TEAE: General disorders and administration site conditions, Mild (25 mg BID (N = 30)): 0 n (%) | On-treatment TEAE: Glomerular filtration rate decreased (25 mg BID (N = 30)): 0 n (%) | On-treatment TEAE: Glomerular filtration rate decreased, Mild (25 mg BID (N = 30)): 0 n (%) | On-treatment TEAE: Headache (25 mg BID (N = 30)): 2 (6.7) n (%) | On-treatment TEAE: Headache, Mild (25 mg BID (N = 30)): 2 (6.7) n (%) | On-treatment TEAE: Hyperkalaemia (25 mg BID (N = 30)): 9 (30.0) n (%) | On-treatment TEAE: Hyperkalaemia, Mild (25 mg BID (N = 30)): 7 (23.3) n (%) | On-treatment TEAE: Hyperkalaemia, Moderate (25 mg BID (N = 30)): 2 (6.7) n (%) | On-treatment TEAE: Hyperkalaemia, Severe (25 mg BID (N = 30)): 0 n (%) | On-treatment TEAE: Hypertension (25 mg BID (N = 30)): 1 (3.3) n (%) | On-treatment TEAE: Hypertension, Moderate (25 mg BID (N = 30)): 0 n (%) | On-treatment TEAE: Infections and infestations (25 mg BID (N = 30)): 3 (10.0) n (%) | On-treatment TEAE: Infections and infestations, Mild (25 mg BID (N = 30)): 2 (6.7) n (%) | On-treatment TEAE: Infections and infestations, Moderate (25 mg BID (N = 30)): 1 (3.3) n (%) | On-treatment TEAE: Investigations (25 mg BID (N = 30)): 3 (10.0) n (%) | On-treatment TEAE: Investigations, Mild (25 mg BID (N = 30)): 2 (6.7) n (%) | On-treatment TEAE: Investigations, Moderate (25 mg BID (N = 30)): 1 (3.3) n (%) | On-treatment TEAE: Metabolism and nutrition disorders (25 mg BID (N = 30)): 10 (33.3) n (%) | On-treatment TEAE: Metabolism and nutrition disorders, Mild (25 mg BID (N = 30)): 8 (26.7) n (%) | On-treatment TEAE: Metabolism and nutrition disorders, Moderate (25 mg BID (N = 30)): 2 (6.7) n (%) | On-treatment TEAE: Nervous system disorders (25 mg BID (N = 30)): 3 (10.0) n (%) | On-treatment TEAE: Nervous system disorders, Mild (25 mg BID (N = 30)): 2 (6.7) n (%) | On-treatment TEAE: Orthostatic hypotension (25 mg BID (N = 30)): 0 n (%) | On-treatment TEAE: Orthostatic hypotension, Mild (25 mg BID (N = 30)): 0 n (%) | On-treatment TEAE: Psychiatric disorders (25 mg BID (N = 30)): 0 n (%) | On-treatment TEAE: Psychiatric disorders, Moderate (25 mg BID (N = 30)): 0 n (%) | On-treatment TEAE: Urinary tract infection (25 mg BID (N = 30)): 3 (10.0) n (%) | On-treatment TEAE: Urinary tract infection, Mild (25 mg BID (N = 30)): 2 (6.7) n (%) | On-treatment TEAE: Vascular disorders (25 mg BID (N = 30)): 1 (3.3) n (%) | On-treatment TEAE: Vascular disorders, Mild (25 mg BID (N = 30)): 1 (3.3) n (%) | On-treatment TEAE: Vascular disorders, Moderate (25 mg BID (N = 30)): 0 n (%) | On-treatment TEAE: any, Mild (25 mg BID (N = 30)): 14 (46.7) n (%) | On-treatment TEAE: any, Moderate (25 mg BID (N = 30)): 4 (13.3) n (%) | On-treatment TEAE: any, Severe (25 mg BID (N = 30)): 0 n (%) | Subjects with any On-treatment TEAEs leading to withdrawal from study drug (25 mg BID (N = 30)): 1 (3.3) n (%) | TEAE leading to permanent discontinuation from study drug: Activated partial thromboplastin time prolonged (25 mg BID (N = 30)): 0 n (%) | TEAE leading to permanent discontinuation from study drug: Cardiac disorders (25 mg BID (N = 30)): 0 n (%) | TEAE leading to permanent discontinuation from study drug: Coronary artery disease (25 mg BID (N = 30)): 0 n (%) | TEAE leading to permanent discontinuation from study drug: Dizziness (25 mg BID (N = 30)): 0 n (%) | TEAE leading to permanent discontinuation from study drug: Hyperkalaemia (25 mg BID (N = 30)): 1 (3.3) n (%) | TEAE leading to permanent discontinuation from study drug: Hypertension (25 mg BID (N = 30)): 1 (3.3) n (%) | TEAE leading to permanent discontinuation from study drug: Hypotension (25 mg BID (N = 30)): 0 n (%) | TEAE leading to permanent discontinuation from study drug: Investigations (25 mg BID (N = 30)): 0 n (%) | TEAE leading to permanent discontinuation from study drug: Metabolism and nutrition disorders (25 mg BID (N = 30)): 1 (3.3) n (%) | TEAE leading to permanent discontinuation from study drug: Nervous system disorders (25 mg BID (N = 30)): 0 n (%) | TEAE leading to permanent discontinuation from study drug: Orthostatic hypotension (25 mg BID (N = 30)): 0 n (%) | TEAE leading to permanent discontinuation from study drug: Vascular disorders (25 mg BID (N = 30)): 1 (3.3) n (%) | On-treatment TEAE: Blood and lymphatic system disorders (50 mg QD (N = 28)): 0 n (%) | On-treatment TEAE: Blood and lymphatic system disorders, Mild (50 mg QD (N = 28)): 0 n (%) | On-treatment TEAE: Blood creatinine increased (50 mg QD (N = 28)): 0 n (%) | On-treatment TEAE: Blood creatinine increased, Mild (50 mg QD (N = 28)): 0 n (%) | On-treatment TEAE: Cardiac disorders (50 mg QD (N = 28)): 1 (3.6) n (%) | On-treatment TEAE: Cortisol decreased (50 mg QD (N = 28)): 0 n (%) | On-treatment TEAE: Cortisol decreased, Mild (50 mg QD (N = 28)): 0 n (%) | On-treatment TEAE: Dizziness (50 mg QD (N = 28)): 2 (7.1) n (%) | On-treatment TEAE: Gastrointestinal disorders (50 mg QD (N = 28)): 1 (3.6) n (%) | On-treatment TEAE: Gastrointestinal disorders, Mild (50 mg QD (N = 28)): 1 (3.6) n (%)
